Laboratory results reported in patent US20090233999A1, “COMPOSITIONS AND THERAPEUTIC METHODS INVOLVING ISOFLAVONES AND ANALOGUES THEREOF” (NOVOGEN RESEARCH PTY LTD, priority 1999, published 2009).
One block for each molecule: values may come before it.

Key:
[1] = tested on: P-cadherin; test: UVB psoriasis model: immunohistochemical detection of P-cadherin; type: in vivo, mouse; details: 20 μM topical
Method: Groups of three Skh:hr-1 mice were exposed to 3×MEdD of UVB radiation, with and without topical treatment with 20 μM Cpd. 18, and were euthanased before and at 24, 48, 72 and 96 h after irradiation, and mid-dorsal skin samples were taken for histological fixation. The samples were fixed for 6 h in Histochoice (Amresco Solon, Ohio), then processed overnight in an automated formalin-ethanol-based system (Tissue Tek VIP; Bayer Diagnostics, Ferntree Gully, Australia) and embedded into paraffin blocks. Sections of 4 μm were cut onto silane-coated slides, de-waxed and rehydrated using xylene followed by graded aqueous ethanol solutions to PBS. Endogenous peroxidase activity of the sections was quenched with 3% H2O2 in methanol for 10 min at room temperature and washed 3 times with PBS. The sections were then blocked with 10% skim milk in PBS for 40 min at room temperature. […]
The stained sections were examined by light microscopy at 20× magnification and images were captured digitally with a Sony Hyper HAD colour video camera (Sony, Tokyo, Japan). Stain intensity was analysed using a Leica Q500 MC image processing and analysis system (Leica, Cambridge, UK) and semi-quantitated in arbitrary image analysis units as the average intensity of 15 sequential fields across the skin section for each of 3 mice per treatment group. […]

[2] = tested on: INFγ; test: INFγ production by murine splenocytes; type: cell-based, mouse; details: 10 μM; Con A
Method: Male Skh-1 (hairless) mice, approximately six weeks old were killed by cervical dislocation. Single cell suspensions were made from the spleen and erythrocytes were lysed in buffer (0.14M NH4Cl, 17 mM Tris, pH 7.2). The remaining splenocytes were cultured in RPMI-1640 (Gibco) supplemented with 10% (v:v) FBS, 2 mM L-glutamine, pen/strep and 50 μM 2-mercaptoethanol. Splenocytes were added to quadruplicate wells containing either the T cell mitogen concanavalin A (Con A, Sigma-Aldrich—0. 4 μg/well), the B-cell mitogen LPS (Sigma-Aldrich—1 μg/well) or no mitogen, as well as test compound at a concentration of 10 μM in DMSO. Samples were analysed after a 3 day incubation at 37° C. in 5% CO2 in air. Cell viability was assessed by adding MTT to each well, incubating for a further 4 hrs and then developing colour with 0.04N HCl in isopropanol. Supernatant samples were frozen at −80° C. and IL-6, IFN-γ and TNFα were detected in triplicate using ELISA kits (BD Biosciences).

melting point: 130 °C
SMILES: Cc1c(O)ccc2c1OCC(c1cccc(O)c1)=C2 [Cpd. 14, 3′,7-Dihydroxy-8-methylisoflav-3-ene]

SMILES: COc1ccc(C2=Cc3ccc(O)cc3OC2)cc1OC [Cpd. 18, 7-Hydroxy-3′,4′-dimethoxyisoflav-3-ene]
P-cadherin expression in the skin, treatment alone ([1]; without UVB): no effect | reduction of UVB-induced P-cadherin positive cells ([1]; 72 h, Skh:hr-1): approximately 50%

SMILES: Oc1ccc(C2=Cc3ccc(O)c(Br)c3OC2)cc1 [Cpd. 20, 4′,7-Dihydroxy-8-bromoisoflav-3-ene]
INFγ synthesis by T cells [2]: marked reduction
